Assay results published in article PMC12302426, “Dihydrokoumine, a dual-target analgesic with reduced side effects isolated from a traditional Chinese medicine” (Journal of Advanced Research, 2024).

Key:
C57BL/6 male mice = experiment: Hot-plate assay (acute pain); format: in vivo; details: morphine 5 mg/kg i.p.
Method: The hot-plate test in mice was conducted following previously established method. Six-week-old C57BL/6 male mice were used in hot-plate assay (n = 6). Hot-plate response latency (55°C) after drug treatment was used to measure antinociceptive effect, where response was defined by the animal either by licking paws, flicking paws or jumping. Mice were exposed to the hot plate (Ugo Basile model 7280, Comerio, Italy) for a maximum of 20 s to avoid tissue damage. After three days’ baseline measure, mice were injected intraperitoneally (5 mL/kg) with the solvent mixture, morphine (5 mg/kg) or DK (20, 40 mg/kg) and latency was tested 0.5-, 1-, 2-, 3- and 4- hours post-administration. Evaluation of MOR agonistic and M3R antagonistic activity of DK, naloxone (2 mg/kg) and oxotremorine (0.4 mg/kg) were first injected intraperitoneally, immediately followed by the injection of morphine (5 mg/kg, evaluation of MOR) or DK (20 mg/kg).

M3R = biological target: T1, M3R (Homo sapiens, UniProt P20309); experiment: Radioligand binding assay, [3H] NMS; details: [3H] NMS 0.2 nM
T1 construct: expressed in transfected cells; host or cells: HEK293 cell membranes
Method: Radioligand binding assays were conducted using MicroBeta2 (PerkinElmer, USA). Membrane protein preparations MOR and M3R were each prepared at a concentration of 2.5 µg/well. The radio ligands [^3H] DAMGO (specific for MOR) and [^3H]-NMS (specific for M3R) were prepared at concentrations of 0.5 nM and 0.2 nM, respectively. […] For each well, 1 µL of the serially diluted test compounds was transferred, followed by the addition of 100 µL of membrane stock solution and 100 µL of radioligand. The plates were sealed and shaken at 300 rpm at room temperature for one hour. Upon completion of the binding assay, the contents of each well were filtered through Unifilter-96 GF/C filter plates (PerkinElmer, USA). The filter plates were dried for one hour at 50°C and sealed. The trapped ^3H (tritium) on the filters was then quantified using the MicroBeta2. The percentage of inhibition or binding was subsequently calculated.

T1 sequence (P20309 whole entry): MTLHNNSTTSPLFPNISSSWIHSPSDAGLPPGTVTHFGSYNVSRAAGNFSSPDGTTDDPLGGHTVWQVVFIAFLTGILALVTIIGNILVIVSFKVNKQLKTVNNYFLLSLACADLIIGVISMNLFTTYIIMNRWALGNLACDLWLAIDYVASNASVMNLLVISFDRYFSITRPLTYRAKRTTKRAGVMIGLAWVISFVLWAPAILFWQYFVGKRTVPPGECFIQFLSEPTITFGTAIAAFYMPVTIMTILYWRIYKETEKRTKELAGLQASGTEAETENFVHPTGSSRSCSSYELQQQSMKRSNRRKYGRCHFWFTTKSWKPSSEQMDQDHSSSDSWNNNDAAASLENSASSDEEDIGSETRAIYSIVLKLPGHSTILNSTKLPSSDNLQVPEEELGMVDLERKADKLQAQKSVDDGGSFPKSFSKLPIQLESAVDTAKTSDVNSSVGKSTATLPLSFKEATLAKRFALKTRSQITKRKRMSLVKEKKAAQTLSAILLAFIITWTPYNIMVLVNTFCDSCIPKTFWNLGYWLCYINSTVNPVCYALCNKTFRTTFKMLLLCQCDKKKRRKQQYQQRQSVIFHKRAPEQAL

Structure (SMILES)	time course of antinociception (C57BL/6 male mice)	efficacy (maximal inhibition of radioligand binding) (M3R) [%]
CN1CC[C@]23c4c5ccc(O)c4O[C@H]2[C@@H](O)C=C[C@H]3[C@H]1C5 [morphine, reference compound]	largely reduced after one hour and even disappeared at 3 h	
CN1[C@@H]2C[C@@H](OC(=O)[C@H](CO)c3ccccc3)C[C@H]1[C@@H]1O[C@@H]12 [scopolamine, reference compound]		100
